Measurements as given in the CheMixHub viscosity set.

Experiment: xn = mol fraction of the nth substance listed
Conditions: 101 kPa

ClCCCCCl + CCCCO
viscosity [mPa·s]
Conditions | x1 = 0.0988 | x1 = 0.1965 | x1 = 0.2919 | x1 = 0.3955 | x1 = 0.4961 | x1 = 0.5978 | x1 = 0.6964 | x1 = 0.7945 | x1 = 0.8982
298.15 K | 2.129 | 1.827 | 1.61 | 1.455 | 1.338 | 1.265 | 1.221 | 1.204 | 1.213
313.15 K | 1.485 | 1.3 | 1.17 | 1.077 | 1.012 | 0.9721 | 0.9502 | 0.9443 | 0.9674

CCCCN(CCO)CCO + O
viscosity [mPa·s]
Conditions | 303.15 K | 308.15 K | 313.15 K | 318.15 K | 323.15 K
x1 = 0.0501 | 3.144 | 2.695 | 2.335 | 2.041 | 1.795
x1 = 0.0999 | 6.924 | 5.705 | 4.763 | 4.027 | 3.434
x1 = 0.15 | 11.35 | 9.112 | 7.428 | 6.13 | 5.123
x1 = 0.2 | 15.8 | 12.47 | 10.01 | 8.116 | 6.674
x1 = 0.3013 | 25.17 | 19.3 | 15.07 | 11.97 | 9.604
x1 = 0.3988 | 32.99 | 24.94 | 19.22 | 15.07 | 11.96
x1 = 0.4994 | 39.06 | 29.14 | 22.33 | 17.44 | 13.76
x1 = 0.6027 | 42.39 | 31.62 | 24.2 | 18.83 | 14.84
x1 = 0.7058 | 43.85 | 32.83 | 25.16 | 19.65 | 15.51
x1 = 0.8009 | 43.72 | 32.88 | 25.37 | 19.83 | 15.71
x1 = 0.899 | 42.96 | 32.66 | 25.3 | 19.86 | 15.82

Nc1cccc(Cl)c1 + CCCCO
viscosity [mPa·s]
Conditions | x1 = 0.0884 | x1 = 0.1792 | x1 = 0.2723 | x1 = 0.368 | x1 = 0.4662 | x1 = 0.5671 | x1 = 0.6708 | x1 = 0.7774 | x1 = 0.8871
303.15 K | 2.47 | 2.654 | 2.84 | 3.03 | 3.219 | 3.412 | 3.607 | 3.806 | 4.02
308.15 K | 2.198 | 2.371 | 2.546 | 2.72 | 2.895 | 3.073 | 3.253 | 3.441 | 3.635
313.15 K | 1.966 | 2.128 | 2.284 | 2.441 | 2.598 | 2.759 | 2.923 | 3.091 | 3.261
318.15 K | 1.761 | 1.911 | 2.052 | 2.19 | 2.328 | 2.468 | 2.61 | 2.756 | 2.897
